Experimental data published in PubChem BioAssay AID334 (DTP/NCI, 2004).
Where “and” joins values, the source holds several entries; their conditions need not be identical. Identical values can stand only once. Inconclusive results and toxic doses are left out.

System: CD2F1 mice, intracerebral P388 leukemia, median survival T/C%
Assay: NCI In Vivo Anticancer Drug Screen. Data for tumor model P388 Leukemia (intracerebral) in CD2F1 (CDF1) mice
Conditions: endpoint: median survival time, higher = longer survival
Method: The antitumor activity of compounds was measured in mice bearing transplantable tumors. Survival or tumor size were measured and the results are expressed as the measurement made in the treated group (T) divided by the measurement made in the vehicle treated control group (C). The tumor model used in this assay is P388 Leukemia (intracerebral) in CD2F1 (CDF1) mice

For `NC(C/[N+]([O-])=N/O)C(=O)O` (stereo not given), the T/C (dose: 7.02 mg/kg/injection, schedule: Q01DX009 (ip), vehicle: saline with Tween-80) was 90 % of control, the T/C (dose: 7.02 mg/kg/injection, schedule: Q01DX009 (ip), vehicle: saline) was 110 % of control and the T/C (dose: 14.06 mg/kg/injection, schedule: Q01DX009 (ip), vehicle: saline with Tween-80) was 98 % of control. The T/C (dose: 14.06 mg/kg/injection, schedule: Q01DX009 (ip), vehicle: saline) was 99 % of control, the T/C (dose: 28.12 mg/kg/injection, schedule: Q01DX009 (ip), vehicle: saline with Tween-80) was 95 % of control and the T/C (dose: 28.12 mg/kg/injection, schedule: Q01DX009 (ip), vehicle: saline) was 108 % of control. For the same molecule, the T/C (dose: 56.25 mg/kg/injection, schedule: Q01DX009 (ip), vehicle: saline with Tween-80) was 106 % of control, the T/C (dose: 56.25 mg/kg/injection, schedule: Q01DX009 (ip), vehicle: saline) was 108 % of control and 112 % of control and the T/C (dose: 112.5 mg/kg/injection, schedule: Q01DX009 (ip), vehicle: saline with Tween-80) was 96 % of control.
With `O=P1(NCCCl)OCCCN1CCCl` (stereo not given) the T/C (dose: 538.0 mg/kg/injection, schedule: Q01DX001 (ip), vehicle: saline) was 153 % of control.
`CC1(CO)C(O)CCC2(C)C1CCC1CC3CC12CCC3(O)CO` (stereo not given) was tested, and the T/C (dose: 12.5 mg/kg/injection, schedule: Q01DX009 (ip), vehicle: saline with Tween-80) was 94 % of control, the T/C (dose: 25.0 mg/kg/injection, schedule: Q01DX009 (ip), vehicle: saline with Tween-80) was 113 % of control and the T/C (dose: 50.0 mg/kg/injection, schedule: Q01DX009 (ip), vehicle: saline with Tween-80) was 100 % of control. For the same molecule, the T/C (dose: 100.0 mg/kg/injection, schedule: Q01DX009 (ip), vehicle: saline with Tween-80) was 94 % of control and the T/C (dose: 200.0 mg/kg/injection, schedule: Q01DX009 (ip), vehicle: saline with Tween-80) was 96 % of control.
In the case of `COc1ccc2c(c1)CCC(c1ccccc1)=C2c1ccc(OCCN2CCCC2)cc1`, the T/C (dose: 12.0 mg/kg/injection, schedule: Q01DX005 (ip), vehicle: Klucel (hydroxypropylcellulose) (HPC)) was 104 % of control and 110 % of control, the T/C (dose: 24.0 mg/kg/injection, schedule: Q01DX005 (ip), vehicle: Klucel (hydroxypropylcellulose) (HPC)) was 97 % of control and 102 % of control and the T/C (dose: 48.0 mg/kg/injection, schedule: Q01DX005 (ip), vehicle: Klucel (hydroxypropylcellulose) (HPC)) was 104 % of control and 108 % of control. For the same molecule, the T/C (dose: 96.0 mg/kg/injection, schedule: Q01DX005 (ip), vehicle: Klucel (hydroxypropylcellulose) (HPC)) was 96 % of control.
`CC[C@H]1CN2CCc3cc(OC)c(OC)cc3[C@@H]2C[C@@H]1C[C@H]1NCCc2cc(OC)c(OC)cc21` was tested, and the T/C (dose: 2.0 mg/kg/injection, schedule: Q01DX005 (ip), vehicle: Klucel (hydroxypropylcellulose) (HPC)) was 113 % of control and 99 % of control, the T/C (dose: 4.0 mg/kg/injection, schedule: Q01DX005 (ip), vehicle: Klucel (hydroxypropylcellulose) (HPC)) was 94 % of control and 100 % of control and the T/C (dose: 8.0 mg/kg/injection, schedule: Q01DX005 (ip), vehicle: Klucel (hydroxypropylcellulose) (HPC)) was 119 % of control and 100 % of control.
For `[N-]=[N+]=CC(=O)CCC(N)C(=O)O` (stereo not given), the T/C (dose: 0.05 mg/kg/injection, schedule: Q01DX009 (ip), vehicle: saline) was 107 % of control, the T/C (dose: 0.2 mg/kg/injection, schedule: Q01DX009 (ip), vehicle: saline) was 105 % of control and the T/C (dose: 0.4 mg/kg/injection, schedule: Q01DX009 (ip), vehicle: saline) was 103 % of control.
For `CSCS(=O)C[C@H](CO)NC(=O)/C=C/c1c(C)[nH]c(=O)[nH]c1=O` (stereo not given in full), the T/C (dose: 0.06 mg/kg/injection, schedule: Q01DX005 (ip), vehicle: Klucel (hydroxypropylcellulose) (HPC)) was 103 % of control and 104 % of control, the T/C (dose: 0.12 mg/kg/injection, schedule: Q01DX005 (ip), vehicle: Klucel (hydroxypropylcellulose) (HPC)) was 101 % of control and 105 % of control and the T/C (dose: 0.25 mg/kg/injection, schedule: Q01DX005 (ip), vehicle: Klucel (hydroxypropylcellulose) (HPC)) was 107 % of control and 110 % of control. The T/C (dose: 0.5 mg/kg/injection, schedule: Q01DX005 (ip), vehicle: Klucel (hydroxypropylcellulose) (HPC)) was 106 % of control and 108 % of control.
With `C#C[C@]1(O)CC[C@H]2[C@@H]3CCc4cc(O)ccc4[C@H]3CC[C@@]21C` the T/C (dose: 8.0 mg/kg/injection, schedule: Q01DX009 (ip), vehicle: Klucel (hydroxypropylcellulose) (HPC)) was 90 % of control and 100 % of control, the T/C (dose: 16.0 mg/kg/injection, schedule: Q01DX009 (ip), vehicle: Klucel (hydroxypropylcellulose) (HPC)) was 94 % of control and 104 % of control and the T/C (dose: 16.0 mg/kg/injection, schedule: Q01DX009 (ip), vehicle: saline with Tween-80) was 95 % of control. For the same molecule, the T/C (dose: 32.0 mg/kg/injection, schedule: Q01DX009 (ip), vehicle: Klucel (hydroxypropylcellulose) (HPC)) was 100 % of control and 101 % of control, the T/C (dose: 32.0 mg/kg/injection, schedule: Q01DX009 (ip), vehicle: saline with Tween-80) was 100 % of control and the T/C (dose: 64.0 mg/kg/injection, schedule: Q01DX009 (ip), vehicle: Klucel (hydroxypropylcellulose) (HPC)) was 94 % of control and 100 % of control. The T/C (dose: 64.0 mg/kg/injection, schedule: Q01DX009 (ip), vehicle: saline with Tween-80) was 95 % of control, the T/C (dose: 128.0 mg/kg/injection, schedule: Q01DX009 (ip), vehicle: Klucel (hydroxypropylcellulose) (HPC)) was 99 % of control and 102 % of control and the T/C (dose: 256.0 mg/kg/injection, schedule: Q01DX009 (ip), vehicle: Klucel (hydroxypropylcellulose) (HPC)) was 95 % of control and 100 % of control. For the same molecule, the T/C (dose: 512.0 mg/kg/injection, schedule: Q01DX009 (ip), vehicle: Klucel (hydroxypropylcellulose) (HPC)) was 86 % of control and 99 % of control and the T/C (dose: 512.0 mg/kg/injection, schedule: Q01DX009 (ip), vehicle: saline with Tween-80) was 103 % of control.
